Source: ChEMBL document CHEMBL3430912, “GSK Tres Cantos Anti-Kinetoplastid Screening (TCAKS) Data”

Experiments:
Trypanosoma cruzi [1] = assay: (§1) GSK_TCAKS: pIC50 Trypanosoma cruzi Imaging: Infected Cells. […] Cells were then washed once with PBS before infection. T. cruzi trypomastigotes, collected at days 5 to 8 after infection from LLC-MK2 parasite infected cultures, were allowed to swim out for 4h at 37C from a centrifuged pellet (2,500 rpm/10 min/room temperature). Trypomastigotes were then collected and counted in a CASY Cell Counter. Trypomastigotes, in supplemented DMEM, were added to H9c2 cultures in a multiplicity of infection of 1 and incubated for 18 h. Cells were washed once with PBS before incubation of the infected H9c2 monolayer with trypsin (Life-Technologies) to detach cells from the flask. Cells were counted in a CASY Cell Counter using a 150 um capillary and their density set at 5 * 10^4 cells per mL in supplemented assay DMEM. Infected H9c2 were dispensed into 384-well poly-lysine coated assay plates at 50uL per well using a Multidrop Combi dispenser. After seeding them, the plates were incubated at 37C, 5% CO2 for 72h. Cultures were then fixed and stained by addition of 50 uL of a solution containing 8% formaldehyde and 4 uM DRAQ5 DNA dye (BioStatus, UK) per well. […] Five images were collected per well for reliable statistical analysis. Automated image analysis was performed with a script developed on Acapella High Content Imaging and Analysis Software (PerkinElmer). Output: percentage of infected cells per well as a second infection marker.; type: functional, organism-based, Rattus norvegicus; conditions: H9c2, 4 h
[2] = GSK_TCAKS: pIC50 HepG2 human cell line viability assay using luminiscence. […] Seeding density was checked to ensure that new mono-layers were not more than 50% confluent at the time of harvesting. Cell suspension was added to 500 mL of the same medium at a final density of 1.2 * 10^5 cells/mL. This cell suspension was dispensed (25 uL, 3000 cells per well) into 384-well clear-bottom plates using a Multidrop Combi dispenser. Prior to addition of the cell suspension, the screening compounds (250 nL) were pre-dispensed into the plates with an Echo liquid handler. Plates were incubated for 48 h at 37C, 5% CO2. After incubation, plates equilibrated at room temperature for 30 min before proceeding to develop the luminescent signal. The signal developer, CellTiter-Glo Reagent, was allowed to equilibrate at room temperature for 30 min and added to the plates (25uL per well) using a Multidrop Combi dispenser. Plates were left for 10 min at room temperature for stabilization and then read using a ViewLux.; type: toxicity, cell-based
[3] = biological target: Sterol 14-alpha demethylase (Trypanosoma cruzi (strain CL Brener), UniProt Q7Z1V1); assay: GSK_TCAKS: pIC50 CYP51 from Trypanosoma cruzi.; type: functional
Sequence of Sterol 14-alpha demethylase (Q7Z1V1 whole entry): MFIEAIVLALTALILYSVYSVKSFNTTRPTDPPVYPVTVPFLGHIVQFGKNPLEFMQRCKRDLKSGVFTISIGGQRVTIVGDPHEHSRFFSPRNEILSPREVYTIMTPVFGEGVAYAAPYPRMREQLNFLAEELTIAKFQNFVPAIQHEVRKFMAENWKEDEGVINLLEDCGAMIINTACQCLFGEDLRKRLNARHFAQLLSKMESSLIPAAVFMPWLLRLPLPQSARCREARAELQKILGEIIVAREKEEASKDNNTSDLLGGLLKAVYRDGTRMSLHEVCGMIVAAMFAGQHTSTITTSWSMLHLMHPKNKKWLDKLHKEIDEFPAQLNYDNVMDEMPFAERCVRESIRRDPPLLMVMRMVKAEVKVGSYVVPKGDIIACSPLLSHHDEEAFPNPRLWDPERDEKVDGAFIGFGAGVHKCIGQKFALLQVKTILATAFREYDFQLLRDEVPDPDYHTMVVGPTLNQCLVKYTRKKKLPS

Trypanosoma cruzi [4] = assay: GSK_TCAKS: pIC50 Trypanosoma cruzi viability assay using beta-GAL activity. This assay was run at single shot at 5uM compound concentration per well. The biological reagents consisted of NIH-3T3 host cells and trypomastigotes parasitic cells; both cell types were set to a 3.3 * 10^5 cells/mL dilution in assay DMEM by means of a CASY cell counter device using a 60um capillary. 6 uL of the mixture were dispensed per well (about 1 * 10^3 host-cells and 1 * 10^3 parasites) with a Multidrop Combi dispenser. […] In all wells, the percentage of DMSO never exceeded 0.5%. Plates incubated for four days at 37C, 5% CO2. The substrate used for the assay fluorescence intensity (FLINT) readout was resorufin-beta-D-galactopiranoside (Sigma-Aldrich) at 5uM per well. It was diluted in PBS supplemented with the soft detergent Igepal (Fluka).; type: functional, organism-based, Mus musculus; conditions: Tulahuen, NIH3T3
[5] = test system: Trypanosoma brucei brucei; assay: GSK_TCAKS: pIC50 Trypanosoma brucei viability assay using fluorescence intensity. Assay plates (1536-well) were prepared by dispensing 25nL of compound solution per well using an Echo acoustic dispenser (Labcyte).; type: functional, organism-based; conditions: Lister 427, 2 h
Trypanosoma cruzi [6] = assay: as §1, with “H2C9” for “Trypanosoma cruzi”, “H9c2 Host Cardiomyocytes.” for “Infected Cells.”, “Number” for “percentage”, “H9c2 Host Cardiomyocytes nuclei to determine drug-related cytotoxicity.” for “infected cells per well as a second infection marker.”; type: functional, organism-based, Rattus norvegicus; conditions: H9c2, 4 h
Leishmania donovani [7] = assay: (§2) GSK_TCAKS: pIC50 Leishmania donovani Imaging: Amastigotes/Macrophages. Assay plates (384-well) were prepared by adding 250nL of compound to each well. For single shot assay, the final compound concentration was 5 uM. […] Automated image analysis was performed with a script developed on Acapella High Content Imaging and Analysis Software (PerkinElmer). Output: Average number of amastigotes per macrophage cell were reported for each well.; type: functional, organism-based, Homo sapiens; conditions: THP-1
Trypanosoma cruzi [8] = assay: GSK_TCAKS: pIC50 Trypanosoma cruzi Imaging: Amastigotes/Cell. […] Cells were then washed once with PBS before infection. T. cruzi trypomastigotes, collected at days 5 to 8 after infection from LLC-MK2 parasite infected cultures, were allowed to swim out for 4h at 37C from a centrifuged pellet (2,500 rpm/10 min/room temperature). Trypomastigotes were then collected and counted in a CASY Cell Counter. Trypomastigotes, in supplemented DMEM, were added to H9c2 cultures in a multiplicity of infection of 1 and incubated for 18 h. Cells were washed once with PBS before incubation of the infected H9c2 monolayer with trypsin (Life-Technologies) to detach cells from the flask. Cells were counted in a CASY Cell Counter using a 150 um capillary and their density set at 5 * 10^4 cells per mL in supplemented assay DMEM. Infected H9c2 were dispensed into 384-well poly-lysine coated assay plates at 50uL per well using a Multidrop Combi dispenser. After seeding them, the plates were incubated at 37C, 5% CO2 for 72h. Cultures were then fixed and stained by addition of 50 uL of a solution containing 8% formaldehyde and 4 uM DRAQ5 DNA dye (BioStatus, UK) per well. […] Five images were collected per well for reliable statistical analysis. Automated image analysis was performed with a script developed on Acapella High Content Imaging and Analysis Software (PerkinElmer). Output: number of amastigotes per cell as infection level measurement.; type: functional, organism-based, Rattus norvegicus; conditions: H9c2, 4 h
Leishmania donovani [9] = assay: as §2, with “Infected Macrophages.” for “Amastigotes/Macrophages.”, “Percent” for “Average number”, “infected” for “amastigotes per”, “cells” for “cell”; type: functional, organism-based, Homo sapiens; conditions: THP-1
[10] = test system: Trypanosoma brucei brucei; assay: GSK_TCAKS: pIC50 Trypanosoma brucei viability assay using luminiscence. Assay plates (1536-well) were prepared. T. brucei cultures were harvested and counted in a CASY cell counter. A parasite suspension was prepared at a final concentration of 5 * 10^4 cells/mL in complete HMI9 medium and 6uL was dispensed to all wells containing compounds using a Multidrop Combi dispenser. 6uL of HMI9 media with 0.4% DMSO were dispensed to control columns. Plates were incubated for 24 h at 37C, 5% CO2 then tempered for 10 min at room temperature. ATP content was quantified by adding 4 uL of CellTiter-Glo Reagent (Promega) according to the manufacturer's instructions. Luminescence was measured using a ViewLux.; type: functional, organism-based; conditions: Lister 427, CASY
Leishmania donovani [11] = assay: as §2, with “THP-1 Host Macrophages.” for “Amastigotes/Macrophages.”, “THP-1” for “Average number of amastigotes per macrophage”, “cell count” for “cell”; type: functional, organism-based, Homo sapiens
Leishmania donovani [12] = assay: GSK_TCAKS: pIC50 Leishmania donovani viability assay using fluorescence intensity. Assay plates (1536-well) were prepared by adding 30nL per well of compound. For single shot assay, the final compound concentration was 5uM. […] Briefly, eGFP LdBOB axenic amastigotes were harvested, fixed and counted in a CASY cell counter (Roche-Applied Science). A final concentration of 1.5 * 10^5 cells per well were prepared in amastigote media containing 500 U/mL penicillin/streptomycin (Invitrogen) and 6uL was dispensed to each experimental well using a Multidrop Combi dispenser (Thermo Scientific). 6uL of assay media was dispensed to control columns used as reference for 100% compound response. Following incubation for 72 h at 37C, 5% CO2, 2 uL of resazurin was added to each well at a final concentration of 0.5 mM in phosphate buffered saline (PBS) with IGEPAL (Sigma-Aldrich), 0.05% (v/v).; type: functional, organism-based

Row | SMILES | IC50 (Trypanosoma cruzi [1]) | IC50 at 48 h [2] | IC50 [3] | IC50 (Trypanosoma cruzi [4]) | IC50 [5] | IC50 (Trypanosoma cruzi [6]) | IC50 (Leishmania donovani [7]) | IC50 (Trypanosoma cruzi [8]) | IC50 (Leishmania donovani [9]) | IC50 [10] | IC50 (Leishmania donovani [11]) | IC50 (Leishmania donovani [12])
1 | Cc1cc2nc(N3CC[C@H]3C(N)=O)nc(Nc3cc(C4CC4)[nH]n3)c2s1 | 7.94 µM | > 100 µM | > 100 µM | 6.31 µM | 79.4 nM | 0.501 µM | 1.26 µM | 3980 nM | 2 µM | 126 nM | 0.794 µM | 0.794 µM
2 | COc1cnc2ccc(=O)n(CCN3CCC(NC/C=C/c4cc(F)ccc4F)CC3)c2c1 | 0.02 µM | 63.1 µM | 15.8 µM | 0.0158 µM | 398 nM | 15.8 µM | 2 µM | 10 nM | 5.01 µM | 794 nM | 39.8 µM | 5.01 µM
3 | Cc1cc(Br)sc1CNCCCNc1cc(=O)c2ccccc2[nH]1 | 0.794 µM | 39.8 µM | 63.1 µM | 1.58 µM | 63.1 nM | 25.1 µM | 20 µM | 501 nM | 25.1 µM | 100 nM | 20 µM | > 50.1 µM
4 | NC(=O)c1cc(NC(=O)c2ccccc2COc2ccccc2)ccc1Cl | 31.6 µM | > 100 µM | 79.4 µM | 39.8 µM | 15800 nM | > 50.1 µM | 1.58 µM | 25100 nM | 3.16 µM | > 39800 nM | 15.8 µM | 7.94 µM
5 | Cc1[nH]nc(Nc2ccnc3[nH]ccc23)c1C | > 50.1 µM | > 100 µM | 79.4 µM | 3.98 µM | 126 nM | > 50.1 µM | > 50.1 µM | > 50100 nM | > 50.1 µM | 251 nM | > 50.1 µM | > 50.1 µM
6 | COc1ccc(C2CC(c3ccccc3Cl)=NN2C(=O)CNC(=O)C2CCCC2)cc1 (centres undefined) | 3.16 µM | > 100 µM | 63.1 µM | 3.55 µM | 631 nM | > 50.1 µM | > 50.1 µM | 2000 nM | > 50.1 µM | 794 nM | > 50.1 µM | > 50.1 µM
7 | N#Cc1cc(-c2ccnc(Nc3cccc(CN4CCOCC4)c3)n2)ccc1NCCN | 31.6 µM | 50.1 µM | 31.6 µM | 7.94 µM | 398 nM | 7.94 µM | 0.794 µM | 15800 nM | 1.58 µM | 1260 nM | 7.94 µM | 3.98 µM
8 | CC(=O)Nc1cccc(Nc2ncnc3[nH]cnc23)c1 | 39.8 µM | > 100 µM | > 100 µM | > 50.1 µM | 126 nM | > 50.1 µM | 39.8 µM | 25100 nM | > 50.1 µM | 398 nM | 10 µM | > 50.1 µM
9 | COc1cc(-c2noc(CC#N)n2)ccc1OC(F)F | 39.8 µM | > 100 µM | 100 µM | 39.8 µM | 631 nM | 31.6 µM | > 50.1 µM | 25100 nM | > 50.1 µM | 631 nM | 50.1 µM | > 50.1 µM
10 | Cc1nn2c(=O)c3c([nH]c2c1-c1ccc(Br)cc1)CCCC3 | 1.58 µM | > 100 µM | > 100 µM | 1 µM | 398 nM | > 50.1 µM | 39.8 µM | 794 nM | > 50.1 µM | 794 nM | > 50.1 µM | 10 µM
11 | CCS(=O)(=O)c1cccc(C(=O)Nc2nc(-c3ccccn3)cs2)c1 | 2.51 µM | 25.1 µM | 63.1 µM | 1.58 µM | 501 nM | 3.98 µM | 3.16 µM | 1580 nM | 3.98 µM | 631 nM | 20 µM | 1.26 µM
12 | CCOc1ccc(OCC(=O)N2c3ccccc3CC2C(=O)NC)cc1 (centres undefined) | > 50.1 µM | > 100 µM | > 100 µM | > 50.1 µM | 501 nM | > 50.1 µM | > 50.1 µM | > 50100 nM | > 50.1 µM | 794 nM | > 50.1 µM | > 50.1 µM
13 | COc1ccc(-c2csc(NC(=O)c3ccc([N+](=O)[O-])s3)n2)cc1OC | 0.1 µM | 10 µM | > 100 µM | 0.1 µM | 126 nM | 6.31 µM | 1.26 µM | 79.4 nM | 1.26 µM | 631 nM | 31.6 µM | 1 µM
14 | Cc1ccc2c(c1)SC(C(=O)Nc1nnc(-c3ccccn3)[nH]1)C2 (centres undefined) | 7.94 µM | 25.1 µM | > 100 µM | 5.01 µM | 3980 nM | > 50.1 µM | 2.51 µM | 6310 nM | 3.98 µM | > 39800 nM | 25.1 µM | 6.31 µM
15 | COc1cnc2ccc(=O)n(CCN3CCC(NC(=O)Cc4ccc(Cl)c(Cl)c4)CC3)c2c1 | 0.398 µM | 63.1 µM | 0.794 µM | 0.316 µM | 251 nM | 6.31 µM | 5.01 µM | 158 nM | 39.8 µM | 501 nM | 25.1 µM | 5.01 µM
16 | Cc1cccc(Nc2nc(-c3ccccn3)cs2)n1 | 1 µM | 39.8 µM | 20 µM | 0.631 µM | 1000 nM | 0.631 µM | 2 µM | 794 nM | 3.16 µM | 501 nM | > 50.1 µM | 3.98 µM
17 | O=C(Nc1ccc(-c2nc3ccccc3c(=O)[nH]2)cc1)c1cccs1 | > 50.1 µM | > 100 µM | > 100 µM | 3.16 µM | 251 nM | > 50.1 µM | > 50.1 µM | > 50100 nM | > 50.1 µM | 1000 nM | > 50.1 µM | > 50.1 µM
